A short description of data set [1]: Clearance in fasted Sprague-Dawley rat at 2 mg/kg, IV measured at 0.083 to 24 hrs by LC-MS/MS analysis. As to conditions: in vivo, time 0.083-24 hrs. The format is ADME, organism-based.
For data set [2], the target named is Peroxisome proliferator-activated receptor delta (Homo sapiens) (UniProt Q03181). As to conditions: filed as agonist, dose 0.625-10 µM.
Description: Binding affinity to PPARdelta LBD (unknown origin) assessed as thermal stability by measuring change in melting temperature by thermal shift assay
The target of data set [3] is Nuclear receptor ROR-gamma (Homo sapiens) (UniProt P51449). Kind of data set: Agonist activity at RORgamma (unknown origin) transfected in african green monkey COS7 cells assessed transactivation incubated at 1 uM for 16 hrs by luciferase assay. The format is cell-based.
The test system of a further data set is HepG2. Kind of data set: Cytotoxicity against human HepG2 cells incubated upto 100 uM for 24 hrs by CCK8 assay. The format is toxicity, cell-based. As to conditions: hepg2, 24 h.
A short description of data set [4]: Anti-cholestatic activity in ANIT-induced C57BL/6Nifdc mouse model assessed as downregulation of proinflammatory Ccl4 gene at 0.03 to 0.1 mg/kg, po upto 42 hrs measured after 48 hrs. The format is ADME, organism-based. As to conditions: in vivo, 90 h, dose 0.03-0.1 mg/kg.
A short description of data set [5]: Acute toxicity in mouse assessed as mortality administered orally for 14 days. To be noted: in vivo, po, 336 h, time 14 day.
In data set [6] the target is Retinoic acid receptor beta (Homo sapiens) (UniProt P10826). Put plainly: Agonist activity at RARbeta (unknown origin) transfected in african green monkey COS7 cells assessed transactivation incubated at 1 uM for 16 hrs by luciferase assay. The format is cell-based.
Data set [7] is described as follows: AUC in fasted Sprague-Dawley rat at 2 mg/kg, IV measured at 0.083 to 24 hrs by LC-MS/MS analysis. Set-up: dose 2 mg/kg, time upper 24 hrs, time lower 0.083 hrs, route iv. The format is ADME, organism-based. To be noted: in vivo.
Data set [8] has as its target Nuclear receptor subfamily 1 group I member 2 (Homo sapiens, UniProt O75469). Put plainly: Agonist activity at PXR (unknown origin) transfected in african green monkey COS7 cells assessed transactivation incubated at 1 uM for 16 hrs by luciferase assay. The format is cell-based. As to conditions: cos7, 16 h.
Data set [9] can be described thus: Anti-cholestatic activity in ANIT-induced C57BL/6Nifdc mouse model assessed as decrease in total p65 level at 0.03 to 0.1 mg/kg, po upto 42 hrs measured after 48 hrs by Western blot analysis. The format is ADME, organism-based. As to conditions: in vivo, 90 h, dose 0.03-0.1 mg/kg.
Data set [10] in a line: Anti-cholestatic activity in ANIT-induced C57BL/6Nifdc mouse model assessed as downregulation of proinflammatory Tnf gene at 0.03 to 0.1 mg/kg, po upto 42 hrs measured after 48 hrs. The format is ADME, organism-based. As to conditions: in vivo, 90 h, dose 0.03-0.1 mg/kg.
Data set [11] is described as follows: Anti-cholestatic activity in ANIT-induced C57BL/6Nifdc mouse model assessed as decrease in liver 3-DHCA at 0.03 to 0.1 mg/kg, po upto 42 hrs measured after 48 hrs. The format is ADME, organism-based. To be noted: in vivo, 90 h, dose 0.03-0.1 mg/kg.
Data set [12] is described as follows: Anti-cholestatic activity in ANIT-induced C57BL/6Nifdc mouse model assessed as decrease in serum total bilirubin level at 0.03 to 0.1 mg/kg, po upto 42 hrs measured after 48 hrs. As to conditions: in vivo, 90 h, dose 0.03-0.1 mg/kg. The format is ADME, organism-based.
A short description of data set [13]: Anti-cholestatic activity in ANIT-induced C57BL/6Nifdc mouse model assessed as decrease in liver GHCA at 0.03 to 0.1 mg/kg, po upto 42 hrs measured after 48 hrs. The format is ADME, organism-based. As to conditions: in vivo, 90 h, dose 0.03-0.1 mg/kg.
Data set [14] in a line: Anti-cholestatic activity in ANIT-induced C57BL/6Nifdc mouse model assessed as decrease in liver alkaline phosphatase at 0.03 to 0.1 mg/kg, po upto 42 hrs measured after 48 hrs. The format is ADME, organism-based. To be noted: in vivo, 90 h, dose 0.03-0.1 mg/kg.
A short description of data set [15]: Stability in human liver microsome assessed as intrinsic clearance at 1 uM for 0 to 45 mins by LC/MS-8050 analysis. The format is ADME. To be noted: liver microsomes, time 0-45 min, read-out: CLH. On the technique in general: Liver microsomes are vesicles of endoplasmic reticulum, rich in cytochrome P450 enzymes.
Data set [16] has as its target Vitamin D3 receptor (Homo sapiens) (UniProt P11473). Put plainly: Agonist activity at VDR (unknown origin) transfected in african green monkey COS7 cells assessed transactivation incubated at 1 uM for 16 hrs by luciferase assay. The format is cell-based.
A short description of data set [17]: In vivo upregulation of PPAR alpha in C57BL/6JNifdc mouse liver administered at 0.03 mg/kg, po for 3 days measured after 6 hrs of last administration by real-time PCR analysis. The format is ADME, organism-based. As to conditions: 78 h, time 3.25 day. For orientation: In qPCR the cycle at which signal appears reflects the starting amount.
Data set [18] can be described thus: Anti-fibrosis activity in Ccl4-induced C57BL/6Nifdc mouse model assessed as decrease in inflammatory cells administered orally for 3 weeks. The format is ADME, cell-based. To be noted: in vivo, po, 504 h, dose 0.03-0.1 mg/kg.

Active and inactive are the calls of the source. The rule behind the calls is not given here.

Chain of Nuclear receptor subfamily 1 group I member 2 (O75469 whole entry): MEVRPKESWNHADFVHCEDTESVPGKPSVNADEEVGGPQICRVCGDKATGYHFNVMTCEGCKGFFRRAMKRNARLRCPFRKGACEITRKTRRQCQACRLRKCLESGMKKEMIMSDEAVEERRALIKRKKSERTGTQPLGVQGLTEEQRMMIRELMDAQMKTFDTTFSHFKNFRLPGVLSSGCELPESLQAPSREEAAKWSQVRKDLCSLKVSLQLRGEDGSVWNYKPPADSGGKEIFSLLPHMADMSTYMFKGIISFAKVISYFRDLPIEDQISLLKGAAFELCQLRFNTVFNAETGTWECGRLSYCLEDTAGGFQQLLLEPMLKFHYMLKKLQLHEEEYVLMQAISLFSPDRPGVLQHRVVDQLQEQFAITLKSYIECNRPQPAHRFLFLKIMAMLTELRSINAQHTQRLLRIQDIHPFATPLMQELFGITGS
Chain of Vitamin D3 receptor (Homo sapiens) (P11473 whole entry): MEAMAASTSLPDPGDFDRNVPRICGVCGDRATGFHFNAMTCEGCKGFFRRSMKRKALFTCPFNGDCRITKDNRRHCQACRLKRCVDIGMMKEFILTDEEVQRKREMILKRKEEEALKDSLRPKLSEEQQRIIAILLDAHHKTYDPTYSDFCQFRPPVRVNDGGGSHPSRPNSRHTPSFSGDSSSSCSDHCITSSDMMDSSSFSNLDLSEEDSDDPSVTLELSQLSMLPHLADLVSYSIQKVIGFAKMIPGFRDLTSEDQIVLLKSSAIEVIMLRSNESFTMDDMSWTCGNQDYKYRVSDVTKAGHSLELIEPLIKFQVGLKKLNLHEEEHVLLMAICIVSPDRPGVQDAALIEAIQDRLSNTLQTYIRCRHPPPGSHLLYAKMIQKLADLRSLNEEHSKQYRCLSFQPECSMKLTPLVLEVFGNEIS
Chain of Peroxisome proliferator-activated receptor delta (Homo sapiens) (Q03181 whole entry): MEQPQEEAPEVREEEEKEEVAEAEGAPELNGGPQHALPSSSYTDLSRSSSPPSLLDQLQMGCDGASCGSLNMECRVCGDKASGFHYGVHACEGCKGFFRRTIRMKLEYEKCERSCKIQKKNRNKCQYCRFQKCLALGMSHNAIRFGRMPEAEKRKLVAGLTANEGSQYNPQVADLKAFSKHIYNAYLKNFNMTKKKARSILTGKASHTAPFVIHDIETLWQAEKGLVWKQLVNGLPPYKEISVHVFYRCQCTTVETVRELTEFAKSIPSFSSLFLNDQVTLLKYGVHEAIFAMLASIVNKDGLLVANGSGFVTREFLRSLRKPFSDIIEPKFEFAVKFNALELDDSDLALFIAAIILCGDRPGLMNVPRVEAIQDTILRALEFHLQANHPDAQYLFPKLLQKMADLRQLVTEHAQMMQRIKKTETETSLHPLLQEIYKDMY
Chain of Retinoic acid receptor beta (Homo sapiens) (P10826 whole entry): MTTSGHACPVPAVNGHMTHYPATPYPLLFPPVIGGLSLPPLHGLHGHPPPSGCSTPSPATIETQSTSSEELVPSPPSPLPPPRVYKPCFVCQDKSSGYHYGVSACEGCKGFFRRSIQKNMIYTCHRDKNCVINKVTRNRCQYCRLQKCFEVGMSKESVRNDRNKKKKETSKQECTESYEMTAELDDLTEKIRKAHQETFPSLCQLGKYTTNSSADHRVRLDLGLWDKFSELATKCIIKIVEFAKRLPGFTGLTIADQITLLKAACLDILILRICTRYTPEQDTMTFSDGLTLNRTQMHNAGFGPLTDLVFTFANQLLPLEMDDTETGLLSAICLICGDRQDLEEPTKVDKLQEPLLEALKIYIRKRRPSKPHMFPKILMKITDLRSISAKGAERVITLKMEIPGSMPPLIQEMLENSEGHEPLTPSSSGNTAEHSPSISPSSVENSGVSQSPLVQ
Chain of Nuclear receptor ROR-gamma (Homo sapiens) (P51449 whole entry): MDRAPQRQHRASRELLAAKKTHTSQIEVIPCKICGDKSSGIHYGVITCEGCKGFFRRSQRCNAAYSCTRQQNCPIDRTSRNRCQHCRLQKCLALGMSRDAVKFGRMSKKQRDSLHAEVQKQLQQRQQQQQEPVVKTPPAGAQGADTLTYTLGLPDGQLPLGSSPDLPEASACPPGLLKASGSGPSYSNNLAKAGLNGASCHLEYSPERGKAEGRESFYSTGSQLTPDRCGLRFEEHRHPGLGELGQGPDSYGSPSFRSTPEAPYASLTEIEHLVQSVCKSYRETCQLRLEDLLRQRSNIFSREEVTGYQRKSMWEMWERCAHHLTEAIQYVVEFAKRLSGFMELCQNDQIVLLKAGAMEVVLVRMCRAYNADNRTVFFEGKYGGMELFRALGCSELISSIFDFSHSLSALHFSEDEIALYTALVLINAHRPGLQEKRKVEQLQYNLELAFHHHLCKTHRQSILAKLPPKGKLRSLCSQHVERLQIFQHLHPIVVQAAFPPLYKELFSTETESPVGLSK

The AUC is concentration integrated over time. In data set [1], `Cc1cc(CN2C(=O)CN(c3ccc(C(F)(F)F)cc3)C2=O)cc(C)c1OC(C)(C)C(=O)O` had a CL of 504 mL/h/kg. Moreover, in data set [2], the deltaTm result was “Dose-Dependent Effect”. The result in data set [3], in data set [6] and in [16] was inactive. Besides, the Activity result in the data set with HepG2 was “Non-Toxic”; in data set [4], “Active”; in [5] it was “Non-Toxic”; in [8], “Not Active”; in [9] it was “Active”; in data set [10] it was “Active”. For the same compound, the Activity result is “Active” in [11]; “Active” in data set [12]; “Active” in [13]; “Active” in [14]; “Active” in data set [17]; “Dose-Dependent Effect” in data set [18]. In addition, in [7], the AUC came to 4250 ng·h/mL. In [15], the CLint scaled at 1 µM is 6.24 mL/min/kg.

(Values after ChEMBL document CHEMBL5338805, “Discovery of the First Subnanomolar PPARα/δ Dual Agonist for the Treatment of Cholestatic Liver Diseases” (J Med Chem, 2023).)
